In the assay the target is T1, TNK2 (ACK) (Homo sapiens, UniProt Q07912).
T1 construct: purchased Thermo Fisher Scientific (Life Technologies) SelectScreen
Nature of the assay: SelectScreen LanthaScreen. It counts as binding. The note with it: read-out: % displacement. In outline:
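NU5455 was profiled across the SelectScreen Broad panel of kinase activity and binding assays. Z'LYTE reactions such as CSF1R ran at apparent Km ATP, while the Adapta CAMK1 assay used ATP listed as 10. Values are given as percent.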
On the technique in general: TR-FRET usually uses a lanthanide donor and a delayed reading to cut background.

The record followed here is paper PMC6934184, “Selective DNA-PKcs inhibition extends the therapeutic index of localized radiotherapy and chemotherapy” (The Journal of Clinical Investigation, 2019).

T1 sequence (Q07912 whole entry): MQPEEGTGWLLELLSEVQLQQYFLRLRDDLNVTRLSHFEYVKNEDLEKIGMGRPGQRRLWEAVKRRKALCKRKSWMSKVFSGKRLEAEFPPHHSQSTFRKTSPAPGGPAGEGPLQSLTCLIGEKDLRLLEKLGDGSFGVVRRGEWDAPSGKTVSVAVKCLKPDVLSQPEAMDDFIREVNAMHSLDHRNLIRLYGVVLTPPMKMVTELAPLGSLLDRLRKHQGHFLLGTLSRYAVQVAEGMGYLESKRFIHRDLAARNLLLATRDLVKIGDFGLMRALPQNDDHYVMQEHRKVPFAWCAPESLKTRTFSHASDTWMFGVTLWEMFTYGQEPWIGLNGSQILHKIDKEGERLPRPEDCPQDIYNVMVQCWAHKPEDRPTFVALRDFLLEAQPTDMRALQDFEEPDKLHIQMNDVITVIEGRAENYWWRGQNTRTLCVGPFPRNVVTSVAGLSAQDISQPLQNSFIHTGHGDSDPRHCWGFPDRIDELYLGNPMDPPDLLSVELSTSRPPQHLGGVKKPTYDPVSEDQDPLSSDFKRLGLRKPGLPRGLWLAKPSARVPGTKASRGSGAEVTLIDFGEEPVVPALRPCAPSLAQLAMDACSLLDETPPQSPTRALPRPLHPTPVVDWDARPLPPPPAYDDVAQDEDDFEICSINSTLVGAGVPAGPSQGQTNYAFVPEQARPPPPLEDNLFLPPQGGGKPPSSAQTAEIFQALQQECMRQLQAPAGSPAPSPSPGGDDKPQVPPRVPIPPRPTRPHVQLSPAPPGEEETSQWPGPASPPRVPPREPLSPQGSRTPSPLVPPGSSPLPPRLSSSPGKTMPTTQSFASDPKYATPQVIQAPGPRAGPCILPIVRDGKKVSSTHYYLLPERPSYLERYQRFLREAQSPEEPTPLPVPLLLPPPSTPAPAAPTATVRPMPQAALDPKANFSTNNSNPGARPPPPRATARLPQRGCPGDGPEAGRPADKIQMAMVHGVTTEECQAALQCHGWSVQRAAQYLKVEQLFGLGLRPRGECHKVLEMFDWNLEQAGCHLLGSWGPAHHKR

As to `CN(C(=O)CN1CCOCC1)c1ccc2sc3c(-c4cccc5c(=O)cc(N6CC7CCC(C6)O7)oc45)cccc3c2c1` [NU5455], the inhibition at 1 µM came out at 1.8%.
